# Literature values, collected in patent US8945526B2, “Amphiphilic substance, and drug delivery system and molecular imaging system using the same” (Shimadzu Corporation, priority 2006, dated 2015).
# Details: ICG singly administered
smiles,measurement,value
"CC1(C)C(/C=C/C=C/C=C/C=C2\N(CCCCS(=O)(=O)O)c3ccc4ccccc4c3C2(C)C)=[N+](CCCCS(=O)(=O)[O-])c2ccc3ccccc3c21 [ICG, indocyanine green]",removal from the body,removed from a body in one hour
